The values that follow come from patent US11116757B2 (priority 2015, dated 2021).

For one experiment, the target named is DCN1-UBC12 interaction (Homo sapiens (Human), UniProt Q96GG9). The experiment in a line: biochemical. The format is binding. Particulars: TR-FRET IC50.
DCN1-UBC12 interaction, sequence (Q96GG9 60-248 limits assumed): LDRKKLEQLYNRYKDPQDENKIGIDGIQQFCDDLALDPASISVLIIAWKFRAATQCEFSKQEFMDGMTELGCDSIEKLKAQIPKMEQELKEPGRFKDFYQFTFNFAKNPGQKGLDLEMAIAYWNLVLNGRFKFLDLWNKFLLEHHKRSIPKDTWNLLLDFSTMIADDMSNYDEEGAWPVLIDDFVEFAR
`CCCC(C)N1CCC(N(Cc2ccccc2)C(=O)Nc2ccc(C(F)(F)F)nc2C)CC1` (stereo not shown) [A178] displayed an IC50 of 15.8 µM.

For `CCCC(C)N1CCC(N(Cc2ccccc2)C(=O)Nc2cccc(Cl)c2)CC1` (stereo not shown) [A35], the midpoint of inhibition, the IC50, lay at 0.203 µM.

Staying with this experiment, now noted: Table 4, commercial compounds; read-out: TR-FRET IC50.
`CCc1ccccc1NC(=O)C1CCN(C(=O)c2ccc(F)cc2)CC1` [C67]: the concentration for half-maximal inhibition (IC50) is > 75.6 µM.

For `Cc1ccc(NC(=O)C2CCN(C(=O)c3ccccc3C)CC2)cc1Cl` [C14], the IC50 was > 67.6 µM.

In the case of `O=C(Nc1ccc(C(F)(F)F)cc1)N1CCN(C/C=C/c2ccccc2)CC1` [C13], the IC50 is > 66.3 µM.

With `COc1ccc(C(=O)N2CCC(C(=O)Nc3cccc([N+](=O)[O-])c3)CC2)c2ccccc12` [C60], the IC50 was > 67.6 µM.

Consider `Cc1ccc(NC(=O)C2CCN(C(=O)c3ccc(Cl)cc3)CC2)cc1Cl` [C6], for which the half-inhibitory concentration (IC50) was determined as 38.1 µM.

Still in this experiment, the particulars now being: Table 6, commercial compounds; read-out: TR-FRET IC50.
As to `CCOC(=O)CCNC(=O)c1cnn(-c2ncc(C)c(-c3cccs3)n2)c1C` [E56], the half-inhibitory concentration (IC50) was > 67.6 µM.

Consider `CN1CCN(C(=O)c2cnn(-c3nccc(-c4cccs4)n3)c2C2CC2)CC1` [E33], for which the IC50 was > 67.6 µM.

In the case of `COCCN(C(=O)c1cnn(-c2nccc(-c3cccs3)n2)c1C)C(C)C` [E45], the IC50 was > 67.6 µM.

As for `COCc1c(C(=O)N2CCN(C(C)C)CC2)cnn1-c1ncc(C)c(-c2cccs2)n1` [E21], the IC50 came out at 49.2 µM.

For `COCCN1CCN(C(=O)c2cnn(-c3nccc(-c4cccs4)n3)c2C(C)C)CC1` [E17], the IC50 was found to be 34.4 µM.

For `CC(C)c1c(C(=O)N2CCN(C(C)C)CC2)cnn1-c1nccc(-c2cccs2)n1` [E62], the IC50 is > 77 µM.

Regarding `COCCN1CCN(C(=O)c2cnn(-c3ncc(C)c(-c4cccs4)n3)c2C2CC2)CC1` [E30], the IC50 is > 67.6 µM.

Turning to `CCN1CCN(C(=O)c2cnn(-c3ncc(C)c(-c4cccs4)n3)c2COC)CC1` [E20], the IC50 is 48.2 µM.

Consider `CC(C)c1c(C(=O)N2CCN(CCO)CC2)cnn1-c1nccc(-c2cccs2)n1` [E7], for which the IC50 was found to be 21.3 µM.

Turning to `CCN1CCN(C(=O)c2cnn(-c3nccc(-c4cccs4)n3)c2C)CC1` [E23], the IC50 was determined as 57.9 µM.

On to `CCOc1ccccc1N1CCN(C(=O)c2cnn(-c3nccc(-c4ccco4)n3)c2C)CC1` [E10], for which the IC50 is 25 µM.

The experiment is the same for the next values; noted with them: Table 7, commercial compounds; read-out: TR-FRET IC50.
With `Cc1nn(C)c2c1C(c1ccc(F)c(F)c1)C(NC(=O)c1ccc(Cl)cc1)C(=O)N2` (stereo not shown) [F26], the IC50 was > 67.6 µM.

As to `Cc1cccc(C(=O)NC2C(=O)Nc3c(c(C)nn3C)C2c2ccc(F)c(Br)c2)c1` (stereo not shown) [F17], the concentration for half-maximal inhibition (IC50) is > 67.6 µM.

For the compound `COc1ccc(C2c3c(C)nn(C)c3NC(=O)C2NC(=O)c2ccc(Cl)cc2)cc1F` (stereo not shown) [F31], the IC50 was > 67.6 µM.

Take `COc1ccc(C(=O)NC2C(=O)Nc3c(c(C)nn3C)C2c2ccc(Cl)c(Cl)c2)cc1OC` (stereo not shown) [F30]: the IC50 was > 67.6 µM.

The experiment is the same for the next values; noted with them: read-out: TR-FRET IC50.
Regarding `CCCC(C)N1CCC(N(Cc2ccccc2)C(=O)Nc2cc(C(F)(F)F)ccc2F)CC1` (stereo not shown) [A154], the IC50 came out at 6.51 µM.

For the compound `COc1ccccc1NC(=O)N(Cc1ccc(C)o1)C1CCN(Cc2ccccc2)CC1` [B90], the IC50 is > 67.6 µM.

As for “1-Benzyl-1-(1-(Pentan-2-yl)Piperidin-4-yl)-3-(3-(Trifluoromethyl)Phenyl)Urea [A293]”, the IC50 was > 78.2 µM.

`CCn1cnc(NC(=O)NC2CCN(Cc3ccccc3)CC2)n1` [B47]: the IC50 was > 67 µM.

Regarding `O=C(Nc1cccc(C(F)(F)F)c1)N1CCN(Cc2cccnc2)CC1` [B116], the IC50 is > 74.8 µM.

Take `C#CCCCN1CCC(N(Cc2ccccc2NC(=O)C=C)C(=O)Nc2cccc(C(F)(F)F)c2)CC1` [A119]: the IC50 is 0.353 µM.

For the compound `CCCC(C)N1CCC(N(Cc2ccccc2NC(=O)CCl)C(=O)Nc2cccc(C(F)(F)F)c2)CC1` (stereo not shown) [drawing 843], the IC50 is 0.208 µM.

Turning to `O=C(Nc1cc(F)cc(C(F)(F)F)c1)N(Cc1ccccc1)C1CCN(CCCc2ccccc2)CC1` [A133], the IC50 was determined as 3.21 µM.

Turning to `CCCCN1CCC(N(Cc2ccccc2)C(=O)Nc2cc(F)cc(F)c2)CC1` [A142], the IC50 is 4.26 µM.

As for `CCCCN1CCC(N(Cc2ccccc2)C(=O)Nc2cccc(CC)c2)CC1` [A63], the IC50 was determined as 0.413 µM.

Consider `CCCN1CCC(N(CCC(C)C)C(=O)Nc2cccc(C(F)(F)F)c2)CC1` [A130, 1-Isopentyl-1-(1-Propylpiperidin-4-yl)-3-(3-(Trifluoromethyl)Phenyl)Urea], for which the IC50 was determined as 2.96 µM.

With `C=CC(=O)NCc1ccccc1CN(C(=O)Nc1cccc(C(F)(F)F)c1)C1CCN(C(C)CCC)CC1` (stereo not shown) [A239], the IC50 was > 51.2 µM.

On to `CCCC(C)N1CCC(N(Cc2ccccc2)C(=O)Nc2cccc(C)c2)CC1` (stereo not shown) [A82], for which the IC50 was found to be 0.883 µM.

For the compound `O=C(Nc1ccc2c(c1)OCCO2)N(Cc1ccco1)C1CCN(Cc2ccccc2)CC1` [B115], the IC50 is > 74.6 µM.

As for “1-(1-Acryloylpiperidin-4-yl)-1-Benzyl-3-(3-(Trifluoromethyl)Phenyl)Urea [A65]”, the IC50 is 0.446 µM.

Take `CCCCN1CCC(N(Cc2ccccc2)C(=O)Nc2cccc(C#N)c2)CC1` [A242]: the IC50 was > 52.5 µM.

Turning to `O=C(c1ccccc1Cl)N1CCC(c2nc3ccccc3s2)CC1` [D6], the IC50 was determined as 18.5 µM.

Regarding `O=C(CN1CCN(c2ccccc2)CC1)Nc1cccc(C(F)(F)F)c1` [B37], the IC50 was > 60.6 µM.

`CC(CCN1CCC(N(Cc2ccccc2)C(=O)Nc2cc(F)cc(C(F)(F)F)c2)CC1)c1ccccc1` (stereo not shown) [A127]: the IC50 amounted to 2.23 µM.

Consider `CCCC(C)N1CCC(N(Cc2ccccc2)C(=O)Nc2ccc(Cl)c(Cl)c2F)CC1` (stereo not shown) [A40], for which the IC50 stood at 0.227 µM.

Consider `O=C(Nc1cccc(C(F)(F)F)c1)NC1CCN(Cc2cccc(F)c2)CC1` [A183, 1-(1-(3-Fluorobenzyl)Piperidin-4-yl)-3-(3-(Trifluoromethyl)Phenyl)Urea], for which the IC50 was determined as 21.9 µM.

As to `C#CCCCN1CCC(N(Cc2ccccc2NC(=O)CC)C(=O)Nc2ccc(Cl)c(Cl)c2)CC1` [A200], the IC50 is > 15 µM.

As to `O=C(c1ccc(Cl)cc1)N1CCC(c2nc3ccccc3s2)CC1` [D20], the IC50 was > 67.3 µM.

Take `O=C(NC1CCN(Cc2cccc(F)c2)CC1)C(F)(F)F` [A307]: the IC50 is > 98.1 µM.

As for `CCCC(C)N1CCC(N(Cc2ccccc2)C(=O)Nc2cc(F)c(F)cc2F)CC1` (stereo not shown) [A166], the IC50 worked out at 10.1 µM.

Turning to `CCCC(C)N1CCC(N(Cc2ccccc2)C(=O)Nc2cc(C)oc2C(F)(F)F)CC1` (stereo not shown) [A255], the IC50 is > 60.2 µM.

Turning to `N#Cc1cccc(CN2CCC(N(Cc3ccccc3)C(=O)Nc3cc(F)cc(C(F)(F)F)c3)CC2)c1` [A230], the IC50 was > 28.7 µM.

Regarding `CCCC(C)N1CCC(N(Cc2ccccc2)C(=O)Nc2ccc(F)c(F)c2F)CC1` (stereo not shown) [A286], the IC50 was > 72.4 µM.

Take `CCCC(C)N1CCC(N(Cc2ccccc2)C(=O)Nc2cccc(F)c2)CC1` (stereo not shown) [A72]: the 50% inhibitory concentration (IC50) came out at 0.621 µM.

Turning to `CCCN1CCC(N(Cc2cc(F)cc(C(F)(F)F)c2)C(=O)Nc2cccc(C(F)(F)F)c2)CC1` [A68, 1-(3-Fluoro-5-(Trifluoromethyl)Benzyl)-1-(1-Propylpiperidin-4-yl)-3-(3-(Trifluoromethyl)Phenyl)Urea], the IC50 was determined as 0.488 µM.

Regarding `CCCC(C)N1CCC(N(Cc2ccccc2)C(=O)Nc2cc(C)cc(Cl)c2)CC1` (stereo not shown) [A99], the IC50 worked out at 1.41 µM.

For `CCCCN1CCC(N(Cc2ccccc2)C(=O)Nc2ccc(F)c(C(F)(F)F)c2)CC1` [A26], the IC50 came out at 0.163 µM.

Consider `C=CC(=O)NCCCN(C(=O)Nc1cccc(C(F)(F)F)c1)C1CCN(C(C)CCC)CC1` (stereo not shown) [drawing 834], for which the IC50 is 3.33 µM.

On to `CSc1cccc(NC(=O)NC2CCN(Cc3ccccc3)CC2)c1` [B44], for which the IC50 is > 64.5 µM.

`CCCCN1CCC(CC(=O)OC)(NC(=O)Nc2cccc(C(F)(F)F)c2)CC1` [A254]: the IC50 was > 60.1 µM.

As for `O=C(Nc1ccc(C(=O)N2CCOCC2)cc1)Nc1cccc(C(F)(F)F)c1` [B46], the IC50 was > 66.3 µM.

As to `O=C(c1ccc(Br)cc1)N1CCCC(c2nc3ccccc3s2)C1` (stereo not shown) [D27], the IC50 was > 67.6 µM.

Consider `COc1ccccc1N1CCN(CC(=O)Nc2cccc(C(F)(F)F)c2)CC1` [B107], for which the IC50 is > 72.3 µM.

In the case of `CCCC(C)N1CCC(N(CCCNC(=O)CCl)C(=O)Nc2cccc(C(F)(F)F)c2)CC1` (stereo not shown) [drawing 836], the IC50 was > 53 µM.

In the case of `CC(c1ccc2c(c1)OCO2)N1CCC(N(Cc2ccccc2)C(=O)Nc2cc(F)cc(C(F)(F)F)c2)CC1` (stereo not shown) [A128], the half-inhibitory concentration (IC50) stood at 2.39 µM.

As for `O=C(Nc1cccc(C(F)(F)F)c1)NC1CCN(Cc2ccc(Cl)cc2)CC1` [A186, 1-(1-(4-Chlorobenzyl)Piperidin-4-yl)-3-(3-(Trifluoromethyl)Phenyl)Urea], the IC50 stood at 33.4 µM.

Regarding `CCCCN1CCC(N(Cc2ccccc2)C(=O)Nc2cccc(Cl)c2)CC1` [A60], the IC50 was found to be 0.357 µM.

For `CCCC(C)N1CCC(N(Cc2ccccc2)C(=O)Nc2ccc(Cl)c(Cl)c2)CC1` (stereo not shown) [A46], the 50% inhibitory concentration (IC50) amounted to 0.257 µM.

Consider `CCCN1CCC(NC(=O)Nc2ccccc2Cl)CC1` [B51], for which the IC50 is > 67.6 µM.

As to `O=C(c1ccc(F)cc1)N1CCCC(c2nc3ccccc3s2)C1` (stereo not shown) [D16], the IC50 was > 48.7 µM.

With `C#CCCCN1CCC(N(Cc2ccccc2NC(=O)C=C)C(=O)Nc2ccc(Cl)c(Cl)c2)CC1` [A304], the half-inhibitory concentration (IC50) was > 9.74 µM.

“1-Benzyl-1-(1-(Cyclopropylmethyl)Piperidin-4-yl)-3-(3-(Trifluoromethyl)Phenyl)Urea [A30]”: the IC50 is 0.178 µM.

`CCCN1CCC(N(CCOC)C(=O)Nc2cccc(C(F)(F)F)c2)CC1` [A248, 1-(2-Methoxyethyl)-1-(1-Propylpiperidin-4-yl)-3-(3-(Trifluoromethyl)Phenyl)Urea]: the IC50 is > 58.9 µM.

As for `CCCC(C)N1CCC(N(Cc2ccccc2)C(=O)Nc2cc(F)cc(C(F)(F)F)c2)CC1` (stereo not shown) [A6], the IC50 amounted to 0.058 µM.

`CC(c1cccc(O)c1)N1CCC(N(Cc2ccccc2)C(=O)Nc2cc(F)cc(C(F)(F)F)c2)CC1` (stereo not shown) [A218]: the IC50 was > 24 µM.

Take `CCCC(C)N1CCC(N(Cc2ccccc2)C(=O)Nc2c(C)cc(Br)cc2C)CC1` (stereo not shown) [A265]: the IC50 is > 65.7 µM.

Consider `COc1ccc(CN(C(=O)Nc2ccccc2F)C2CCN(C(C)=O)CC2)cc1` [B86], for which the IC50 is > 67.6 µM.

In the case of `COc1cc(OC)cc(C(=O)N2CCCC(c3nc4ccccc4s3)C2)c1` (stereo not shown) [D30], the 50% inhibitory concentration (IC50) is > 67.6 µM.

Consider `CC(C)C(C)N1CCC(N(Cc2ccccc2)C(=O)Nc2cc(F)cc(C(F)(F)F)c2)CC1` (stereo not shown) [A122], for which the IC50 stood at 1.12 µM.
